Data on two molecules can be found in patent US20250382344A1, “Soluble GLP1/GIP/NPY2 Receptor Triple Agonists” (Boehringer Ingelheim International GmH, priority 2024, published 2025).

Read-outs that look alike come from different tables or passages of the source.

Data set [1] is described as follows: Solubility in 0.1 M phosphate buffer at pH 7. The data set is classed as physicochemical. As to conditions: 0.1 M phosphate buffer at pH 7, 10 mg/mL final peptide concentration, shaking 2 hours at room temperature, peptides as TFA-salts; measured sample pH 6.5-7.0.
Data set [2] concerns the target T1, hGIPR (Homo sapiens, UniProt P48546).
T1 construct: expressed in transfected cells; host or cells: CHO CRE-luciferase reporter cells
T1 sequence (P48546 22-466): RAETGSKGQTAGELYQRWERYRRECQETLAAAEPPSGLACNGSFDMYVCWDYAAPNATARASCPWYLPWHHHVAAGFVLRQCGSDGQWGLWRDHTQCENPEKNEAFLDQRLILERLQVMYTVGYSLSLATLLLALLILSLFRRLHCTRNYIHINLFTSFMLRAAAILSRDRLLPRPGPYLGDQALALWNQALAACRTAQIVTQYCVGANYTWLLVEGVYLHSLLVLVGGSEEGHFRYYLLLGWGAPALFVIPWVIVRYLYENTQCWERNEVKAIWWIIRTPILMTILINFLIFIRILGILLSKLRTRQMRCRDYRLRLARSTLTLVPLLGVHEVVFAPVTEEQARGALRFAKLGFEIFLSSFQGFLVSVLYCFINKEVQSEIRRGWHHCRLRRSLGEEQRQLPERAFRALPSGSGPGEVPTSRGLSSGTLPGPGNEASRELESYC
In words: hGIPR CreLuc assay in 0.5% and 100% plasma (CHO CRE-luciferase reporter cells). The data set is classed as cell-based.

With `CC[C@H](C)[C@H](NC(=O)[C@H](CC(C)C)NC(=O)[C@H](Cc1c[nH]cn1)NC(=O)[C@H](CCCNC(=N)N)NC(=O)[C@@H](NC(=O)[C@H](Cc1ccccc1)NC(=O)[C@H](C)NC(=O)C(C)(C)NC(=O)[C@H](CCC(N)=O)NC(=O)[C@H](C)NC(=O)[C@H](CCC(N)=O)NC(=O)[C@H](CCCCN)NC(=O)[C@H](CCC(=O)O)NC(=O)[C@H](CC(C)C)NC(=O)C(C)(C)NC(=O)[C@@H](NC(=O)[C@H](CO)NC(=O)[C@H](Cc1ccc(O)cc1)NC(=O)[C@H](CC(=O)O)NC(=O)[C@H](CO)NC(=O)[C@@H](NC(=O)[C@H](Cc1ccccc1)NC(=O)[C@@H](NC(=O)CNC(=O)[C@H](CCC(=O)O)NC(=O)C(C)(C)NC(=O)[C@@H](N)Cc1ccc(O)cc1)[C@@H](C)O)[C@@H](C)O)[C@@H](C)CC)C(C)C)C(=O)N[C@@H](CC(N)=O)C(=O)N[C@@H](CCCCNC(=O)CC[C@H](NC(=O)CC[C@H](NC(=O)CC[C@H](NC(=O)CC[C@H](NC(=O)CC[C@H](NC(=O)CC[C@H](NC(=O)[C@H]1CC[C@H](CNC(=O)CCCCCCCCCCCCCCCCCCC(=O)O)CC1)C(=O)O)C(=O)O)C(=O)O)C(=O)O)C(=O)O)C(=O)O)C(=O)NC(C)(C)C(=O)N[C@H](C(=O)N[C@@H](CCCNC(=N)N)C(=O)N[C@@H](CCC(N)=O)C(=O)N[C@@H](CCCNC(=N)N)C(=O)N[C@@H](Cc1ccc(O)cc1)C(N)=O)[C@@H](C)O` [Compound 133, Y-Aib-E-G-T-F-T-S-D-Y-S-I-Aib-L-E-K-Q-A-Q-Aib-A-F-V-R-H-L-I-N-K(1,3)-Aib-T-R-Q-R-Y-NH2.C20DA-TRX-gGlu-gGlu-gGlu-gGlu-gGlu-gGlu(1,2)], the solubility at 2 h in data set [1] amounted to 4.2 mg/mL. Further, the EC50 in data set [2] (0.5% human plasma, read-out: hGIPR 0.5% hP) came out at 0.3 nM; in data set [2] (100% human plasma, read-out: hGIPR 100% hP), 3.4 nM.
As for `CC[C@H](C)[C@H](NC(=O)[C@H](CC(C)C)NC(=O)[C@H](Cc1c[nH]cn1)NC(=O)[C@H](CCCNC(=N)N)NC(=O)[C@@H](NC(=O)[C@H](Cc1ccccc1)NC(=O)[C@H](C)NC(=O)C(C)(C)NC(=O)[C@H](CCC(N)=O)NC(=O)[C@H](C)NC(=O)[C@H](CCC(N)=O)NC(=O)[C@H](CCCCN)NC(=O)[C@H](CCC(=O)O)NC(=O)[C@H](CC(C)C)NC(=O)C(C)(C)NC(=O)[C@@H](NC(=O)[C@H](CO)NC(=O)[C@H](CC(C)C)NC(=O)[C@H](CC(=O)O)NC(=O)[C@H](CO)NC(=O)[C@@H](NC(=O)[C@H](Cc1ccccc1)NC(=O)[C@@H](NC(=O)CNC(=O)[C@H](CCC(=O)O)NC(=O)C(C)(C)NC(=O)[C@@H](N)Cc1ccc(O)cc1)[C@@H](C)O)[C@@H](C)O)[C@@H](C)CC)C(C)C)C(=O)N[C@@H](CC(N)=O)C(=O)N[C@@H](CCCCNC(=O)[C@@H](N)CCCCNC(=O)CC[C@H](NC(=O)CC[C@H](NC(=O)CC[C@H](NC(=O)CC[C@H](NC(=O)CC[C@H](NC(=O)CC[C@H](NC(=O)CC[C@H](NC(=O)CCCCCCCCCCCCCCCCCCC(=O)O)C(=O)O)C(=O)O)C(=O)O)C(=O)O)C(=O)O)C(=O)O)C(=O)O)C(=O)NC(C)(C)C(=O)N[C@H](C(=O)N[C@@H](CCCNC(=N)N)C(=O)N[C@@H](CCC(N)=O)C(=O)N[C@@H](CCCNC(=N)N)C(=O)N[C@@H](Cc1ccc(O)cc1)C(N)=O)[C@@H](C)O` [Compound 135, Y-Aib-E-G-T-F-T-S-D-L-S-I-Aib-L-E-K-Q-A-Q-Aib-A-F-V-R-H-L-I-N-K(1,3)-Aib-T-R-Q-R-Y-NH2.C20DA-gGlu-gGlu-gGlu-gGlu-gGlu-gGlu-gGlu-eLys(1,2)], the solubility at 2 h in data set [1] was 9.2 mg/mL. The EC50 in data set [2] (hGIPR 0.5% hP (nM), 0.5% human plasma) was 0.5 nM.

One may read the solubility as how much of the substance goes into solution per volume.
